Here are results for six compounds from patent publication US5827871A, “Medicaments 1,2,3,4-tetrahydrocarbazoles and 5-HT1 agonist use thereof” (priority 1991, dated 1998).

Structures can show the parent of a compound that is named as a salt.

T1 sequence (P49144 whole entry): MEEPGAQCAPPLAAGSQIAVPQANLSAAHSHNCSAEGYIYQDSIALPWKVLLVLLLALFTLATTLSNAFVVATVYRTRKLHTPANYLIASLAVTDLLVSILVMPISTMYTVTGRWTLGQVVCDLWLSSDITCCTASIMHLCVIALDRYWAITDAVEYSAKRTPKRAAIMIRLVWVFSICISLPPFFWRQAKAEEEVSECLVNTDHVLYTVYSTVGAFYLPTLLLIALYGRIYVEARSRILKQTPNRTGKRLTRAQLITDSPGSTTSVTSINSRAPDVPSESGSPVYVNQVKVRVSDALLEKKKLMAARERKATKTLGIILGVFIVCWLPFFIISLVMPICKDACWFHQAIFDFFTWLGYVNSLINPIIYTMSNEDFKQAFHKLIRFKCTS
Chain of 5-HT1-like receptor (Canis lupus familiaris, UniProt P79250) (P79250 whole entry): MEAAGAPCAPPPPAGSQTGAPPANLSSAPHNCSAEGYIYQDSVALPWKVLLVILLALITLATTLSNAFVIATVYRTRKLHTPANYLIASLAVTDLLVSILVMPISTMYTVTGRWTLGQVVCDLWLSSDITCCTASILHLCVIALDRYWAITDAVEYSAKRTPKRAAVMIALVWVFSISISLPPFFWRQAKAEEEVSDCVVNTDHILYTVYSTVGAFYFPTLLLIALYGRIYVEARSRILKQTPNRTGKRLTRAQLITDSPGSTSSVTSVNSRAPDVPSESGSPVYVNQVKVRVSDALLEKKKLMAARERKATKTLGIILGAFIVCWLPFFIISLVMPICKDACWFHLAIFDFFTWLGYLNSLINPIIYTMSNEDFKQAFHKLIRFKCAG

The first assay concerns the target T1, 5-HT1-like receptor (Oryctolagus cuniculus, UniProt P49144).
T1 construct: from tissue; host or cells: rabbit basilar artery (endothelium-denuded ring segments)
The experiment in a line: 5-HT1-like receptor screen, rabbit isolated basilar artery contraction. To be noted: isometric tension of endothelium-denuded rabbit basilar artery rings, in presence of ascorbate, indomethacin, cocaine, ketanserin and prazosin. Here is the method: Experiments were performed in intracranial arteries from rabbit isolated basilar artery in a similar method to one described previously (Parsons and Whalley, 1989. Eur J Pharmacol 174, 189-196.).
In brief, rabbits were killed by overdose with anaesthetic (sodium pentobarbitone). The whole brain was quickly removed and immersed in ice cold modified Kreb's solution and the basilar artery removed with the aid of a dissecting microscope. The Krebs solution was of the following composition (mM) Na^+ (120); K^+ (5); Ca^2+ (2.25); Mg^2+ (0.5); Cl^- (98.5); SO4^2- (1); EDTA (0.04), equilibrated with 95% O2 /5% CO2. The endothelium was removed by a gentle rubbing of the lumen with a fine metal wire. Arteries were then cut into ring segments (ca 4-5 mm wide) and set up for recording of isometric tension in 50 ml tissue baths in modified Krebs solution with the additional supplement of (mM); […] (20); fumarate (10); pyruvate (5); L-glutamate (5) and glucose (10). The arteries were then placed under a resting force of 3-4 mN maintained at 37° C. and the solution bubbled with 95% O2 /5% CO2.
After tests for initial reactivity with 90 mM KCl depolarising solution and for lack of acetylcholine-induced relaxation of 5-HT ([…]) precontraction, cumulative concentration-effect curves ([…]) to 5-HT were constructed in the presence of ascorbate […], cocaine […], indomethacin […], ketanserin […] and prazosin […].
Following a 45-60 min wash period, cumulative concentration-effect curves to the test compounds or 5-HT (as a time match control) were constructed in the presence of ascorbate, indomethacin, cocaine, ketanserin and prazosin.
One may read the EC50 as the concentration at which the effect is half-maximal. Take `NC1CCc2[nH]c3ccc(S(N)(=O)=O)cc3c2C1` (stereo not shown) [Example 15, 3-Amino-6-sulphonamido-1,2,3,4-tetrahydrocarbazole oxalate]: the EC50 was 0.04 to 15 µM.

As for `CNC1CCc2[nH]c3ccc(C(N)=O)cc3c2C1` (stereo not shown) [Example 24, 3-Methylamino-6-carboxamido-1,2,3,4-tetrahydrocarbazole hydrochloride], the EC50 was in the range of 0.04 to 15 µM.

As for `NC(=O)c1ccc2[nH]c3c(c2c1)CC(NCc1ccccc1)CC3` (stereo not shown) [Example 29, 3-Benzylamino-6-carboxamido-1,2,3,4-tetrahydrocarbazole oxalate], the EC50 fell in the range of 0.04 to 15 µM.

The target in another assay is 5-HT1-like receptor (Canis lupus familiaris, UniProt P79250). The experiment in a line: 5-HT1-like receptor screen, dog saphenous vein contraction. Conditions: contraction of dog saphenous vein helicoids, 37° C., in presence of ketanserin, prazosin, atropine, mepyramine, cocaine and ascorbate; EC50 estimated from concentration-effect curve. Here is the method:
5-HT1 -like Receptor Screen
Helicoids of dog saphenous vein were set up at 37° C. in modified Krebs solution at a resting force of 10 mN. The solution also contained 1 μmol/l each of ketanserin prazosin, atropine and mepyramine, 6 μmol/l cocaine and 200 μmol/l ascorbate. Nearly […] contractions were measured with force transducers on a polygraph. The tissues were exposed twice to 5-hydroxytryptamine (5-HT) 2 μmol/l followed by washes. A cumulative concentration-effect curve was determined, followed by a curve to 5-HT in the presence of the highest used concentration of test compound. Contractions caused by the test compound were compared with those caused by 5-HT. The intrinsic activity of the test compound was calculated as the ratio of the maximum test compound-induced effect over the effect caused by 2 μmol/l 5-HT. The EC50 of the test compound was estimated from the corresponding effect curve. When appropriate equilibrium dissociation constants Kp were estimated by the method of Marano & Kaumann (1976, J. Pharmacol. Exp. Ther. 198, 518-525).
`N#CCc1ccc2[nH]c3c(c2c1)CC(N)CC3` (stereo not shown) [Example 10, 3-Amino-6-cyanomethyl-1,2,3,4-tetrahydrocarbazole oxalate]: the EC50 was 0.1 to 15 µM.

For the compound `CNS(=O)(=O)Cc1ccc2[nH]c3c(c2c1)CC(N)CC3` (stereo not shown) [Example 11, 3-Amino-6-(N-methylsulphonamidomethyl)-1,2,3,4-tetrahydrocarbazole oxalate], the EC50 was 0.1 to 15 µM.

`CC(=O)Nc1ccc2[nH]c3c(c2c1)CC(N)CC3` (stereo not shown) [Example 21, 3-Amino-6-(acetamido)-1,2,3,4-tetrahydrocarbazole oxalate]: the half-maximal effective concentration (EC50) is 0.1 to 15 µM.

Turning to `CNC1CCc2[nH]c3ccc(C(N)=O)cc3c2C1` (stereo not shown) [Example 24, 3-Methylamino-6-carboxamido-1,2,3,4-tetrahydrocarbazole hydrochloride], the half-maximal effective concentration (EC50) was 0.1 to 15 µM.
